Experimental data reported in patent US7947729B2, “Adduct of fluorescent dye and tumor avid tetrapyrrole” (Health Research, Inc., priority 2004, dated 2011).

Legend:
RIF tumor cells = experiment: Site of intracellular localization compared with a mitochondrial probe; format: cell-based; conditions: 24 hours incubation; compared with MITO-TRACKER green (400 nM); FIG. 8
Excerpt: In general, porphyrin based compounds have shown diverse patterns of localization at least somewhat dependent upon structure, lipophilicity and charge.

RIF tumors [1] = experiment: Photosensitizing efficiency (photodynamic therapy of implanted tumors); format: in vivo, C3H mice; conditions: light 135 J/cm^2 at 665 nm, 24 hours post injection, FIG. 7
Description: To measure photosensitizing efficiency, RIF tumors were implanted subcutaneously into axilla of 5-7 week old female C3H mice. When tumors grew to about […] in size, conjugate 5 was injected at variable doses (0.5, 1.0, 1.5, and 2.5 μmole/kg) The tumors were treated with light at an energy of 135 J/cm^2 at a wavelength of 665 nm (in vivo absorption band for HPPH) at 24 hours post injection and the mice were observed daily. From the results summarized in FIG. 7, it can be seen that conjugate 5 produced 100% tumor cure at a dose of 2.5 μmole/kg (the tumor imaging dose).

RIF tumors [2] = experiment: Tumor uptake by in vivo reflectance spectroscopy; parameters: species or system C3H mice
Description: The tumor uptake of conjugate 5 was determined by in vivo reflectance spectroscopy. For these experiments, C3H mice bearing RIF tumors were injected with 5.0 μmole/kg of conjugate 5 and the in vivo absorption spectra were taken at various time intervals.

uptake in skin relative to tumor, dye alone (RIF tumors [2]; 5.0 μmole/kg, dye alone, C3H mouse bearing tumor) | tumor uptake compared with HPPH-ICG conjugate 5 (RIF tumors [2]; 5.0 μmole/kg, dye alone, FIG. 5) | time post injection at which cleared from both tumor and skin (RIF tumors [2]; 5.0 μmole/kg, dye alone, found to clear rapidly) [h] | Structure (SMILES) | site of localization in cells (RIF tumor cells) | tumor cure (RIF tumors [1]; 2.5 μmole/kg) [%] | photosensitizing efficacy at lower doses (RIF tumors [1]; doses below 2.5 μmole/kg (0.5, 1.0, 1.5)) | uptake in tumor relative to skin (RIF tumors [2]; 5.0 μmole/kg injected, 24 hours post injection, FIG. 3)
 |  |  | CCCCCCOC(C)c1c(C)c2cc3nc(c4c5[nH]c(cc6nc(cc1[nH]2)C(C)=C6CC)c(C)c5C(=O)C4)C(CCC(=O)Nc1ccc(SC2=C(C=CC4=[N+](CCCCS(=O)(=O)[O-])c5ccc6ccccc6c5C4(C)C)CCCC2=CC=C2N(CCCCS(=O)(=O)[O-])c4ccc5ccccc5c4C2(C)C)cc1)C3C.[Na+] (stereo not shown) [conjugate 5] | localizes in mitochondria | 100 | limited photosensitizing efficacy | more significant uptake in tumor than skin
higher uptake in skin than in tumor | significantly lower tumor uptake | 4 to 5 | CC1(C)C(=CC=C2CCCC(C=CC3=[N+](CCCCS(=O)(=O)[O-])c4ccc5ccccc5c4C3(C)C)=C2Cl)N(CCCCS(=O)(=O)[O-])c2ccc3ccccc3c21.[Na+] [indocyanine green analog (1), indocyanine green 820 nm analog CAS172616-80-7] |  |  |  | 
